Measured values from patent US8030336B2, “Nicotinamide-based kinase inhibitors” (YM Biosciences Australia Pty Ltd, priority 2002, dated 2011).

Legend:
Assay type in all cases: biochemical
human JAK2 = biological target: T1, human JAK2 (Homo sapiens, UniProt O60674); test: JAK2 kinase assay (ELISA or Alphascreen); settings: read-out: Jak2 inhibition of enzyme activity
T1 construct: The kinase domain of human JAK2 was amplified from U937mRNA; His tag (from the pFastBac HTc vector) (N); made in house; host or cells: baculovirus; Sf9 for virus, High Five insect cells for production
Source text: The kinase domain of human JAK2 was amplified from U937mRNA using the polymerase chain reaction with the following primers: […]
JAK2 PCR products were doped into the pFastBac HTc expression vector (Gibco) via the Sal I and Not I sites. The JAK2 plasmid was than transformed into competent DH10Bac cells (Gibco), and the recombinant baculovirus produced prepared for transfection into Sf9 insect cells.
(§1) Baculovirus preparations from each of the JAK family members were infected into five liters of High Five cells (Invitrogen) grown in High Five serum free medium (Invitrogen) to a cell density of approximately 1-2×10^6 cells/ml. Cells are infected with virus at a MOI of 0.8-3.0. Cells were harvested and lysed. JAK kinase domains were purified by affinity chromatography on a Probond (Invitrogen) nickel chelate affinity column.
(§2) Kinase assays were performed in a 96 well capture-based ELISA assay or in 384 well Optiplates (Packard) using an Alphascreen Protein Tyrosine Kinase kit. In either case using approximately 1.5 μg of affinity purified PTK domain in the presence of 50 mM HEPES, pH 7.5, 10 mM MgCl2, 150 mM NaCl and 10 μM-1 mM ATP. The biotinylated substrate biotin-EGPWLEEEEEAYGWMDF-NH2 (SEQ ID NO:9) (final concentration 5 μM) was used as substrate. In the ELISA assay tyrosine phosphorylation was quantitated following transfer to an avidin coated ELISA plate using peroxidase-linked anti-phosphotyrosine antibody PY20. In the Alphascreen assay, Alphascreen phosphotyrosine acceptor beads followed by streptavidin donor beads were added under subdued light. The ELISA plates were read on a BMG Fluorostar, the Alphascreen plates were read on a Packard Fusion Alpha. Inhibitors were added to the assays fifteen minutes prior to the addition of ATP. Inhibitors were added in aqueous […] concentrations never exceeding 1%.

hck = hck (Homo sapiens, UniProt P08631); test: hck kinase assay (ELISA or Alphascreen); settings: read-out: hck inhibition of enzyme activity
Protocol: as §2

human JAK3 = biological target: T2, human JAK3 (Homo sapiens, UniProt P52333); test: JAK3 kinase assay (ELISA or Alphascreen); settings: read-out: Jak3 inhibition of enzyme activity
T2 construct: The kinase domain of human JAK3 was amplified from U937mRNA; His tag (from the pFastBac HTb vector) (N); made in house; host or cells: baculovirus; Sf9 for virus, High Five insect cells for production
Source text: The kinase domain of human JAK3 was amplified from U937mRNA using the polymerase chain reaction with the following primers: […]
JAK3 PCR products were cloned into the pFastBac HTb expression vector (Gibco) via the Xho I and Kpn I sites. The JAK3 plasmid was then transformed into competent DH10Bac cells (Gibco), and the recombinant baculovirus produced prepared for transfection into Sf9 insect cells.
as §1, §2

Zap70 = biological target: T3, Zap70 (Homo sapiens, UniProt P43403); test: Zap70 kinase assay (ELISA or Alphascreen); settings: read-out: Zap70 inhibition of enzyme activity
T3 sequence (P43403 338-600 limits assumed): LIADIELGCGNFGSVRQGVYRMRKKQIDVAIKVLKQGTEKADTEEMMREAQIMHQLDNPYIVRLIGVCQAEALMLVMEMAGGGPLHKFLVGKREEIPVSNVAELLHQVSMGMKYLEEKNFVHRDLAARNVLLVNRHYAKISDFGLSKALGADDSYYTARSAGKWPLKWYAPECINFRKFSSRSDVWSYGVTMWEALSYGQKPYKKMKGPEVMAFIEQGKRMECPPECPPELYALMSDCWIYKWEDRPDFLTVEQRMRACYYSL
Protocol: as §2

fes = fes (Homo sapiens, UniProt P07332); test: fes kinase assay (ELISA or Alphascreen); settings: read-out: fes inhibition of enzyme activity
Protocol: as §2

fms = biological target: T4, fms (Homo sapiens, UniProt P07333); test: fms kinase assay (ELISA or Alphascreen); settings: read-out: fms inhibition of enzyme activity
T4 sequence (P07333 582-910 limits assumed): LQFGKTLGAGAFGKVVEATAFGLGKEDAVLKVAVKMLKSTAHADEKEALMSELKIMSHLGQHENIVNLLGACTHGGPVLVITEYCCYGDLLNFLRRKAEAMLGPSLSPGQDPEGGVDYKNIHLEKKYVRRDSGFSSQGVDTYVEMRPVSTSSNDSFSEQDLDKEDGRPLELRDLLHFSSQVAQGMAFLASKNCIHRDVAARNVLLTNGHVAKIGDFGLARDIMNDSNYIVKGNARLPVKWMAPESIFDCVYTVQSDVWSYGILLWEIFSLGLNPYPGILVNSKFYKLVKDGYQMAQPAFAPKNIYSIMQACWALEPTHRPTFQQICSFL
Protocol: as §2

abl = biological target: T5, abl (Homo sapiens, UniProt P00519); test: abl kinase assay (ELISA or Alphascreen); settings: read-out: abl inhibition of enzyme activity
T5 sequence (P00519 242-493 limits assumed): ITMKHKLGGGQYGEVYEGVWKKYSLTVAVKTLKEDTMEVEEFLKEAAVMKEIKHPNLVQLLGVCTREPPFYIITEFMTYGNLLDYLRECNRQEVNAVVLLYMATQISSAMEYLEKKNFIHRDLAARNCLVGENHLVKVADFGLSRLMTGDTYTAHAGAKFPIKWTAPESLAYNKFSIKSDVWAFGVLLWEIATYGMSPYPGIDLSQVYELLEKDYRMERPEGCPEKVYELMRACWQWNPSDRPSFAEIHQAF
Protocol: as §2

T2 sequence (P52333 822-1111 limits assumed): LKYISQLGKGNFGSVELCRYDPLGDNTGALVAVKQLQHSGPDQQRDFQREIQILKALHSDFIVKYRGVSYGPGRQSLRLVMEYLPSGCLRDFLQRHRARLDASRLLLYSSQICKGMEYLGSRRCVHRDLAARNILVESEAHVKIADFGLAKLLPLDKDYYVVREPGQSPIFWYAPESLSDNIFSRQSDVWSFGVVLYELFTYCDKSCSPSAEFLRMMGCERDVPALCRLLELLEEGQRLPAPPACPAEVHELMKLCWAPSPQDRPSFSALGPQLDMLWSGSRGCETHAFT
Chain of fes (P07332 561-822 limits assumed, species assumed): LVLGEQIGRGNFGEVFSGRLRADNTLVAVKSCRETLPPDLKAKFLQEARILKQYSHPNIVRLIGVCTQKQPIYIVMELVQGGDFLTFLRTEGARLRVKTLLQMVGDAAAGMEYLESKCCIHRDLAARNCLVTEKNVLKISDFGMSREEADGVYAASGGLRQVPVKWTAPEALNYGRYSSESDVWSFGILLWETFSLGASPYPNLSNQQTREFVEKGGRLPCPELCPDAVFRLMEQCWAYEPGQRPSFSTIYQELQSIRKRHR
T1 sequence (O60674 849-1124 limits assumed): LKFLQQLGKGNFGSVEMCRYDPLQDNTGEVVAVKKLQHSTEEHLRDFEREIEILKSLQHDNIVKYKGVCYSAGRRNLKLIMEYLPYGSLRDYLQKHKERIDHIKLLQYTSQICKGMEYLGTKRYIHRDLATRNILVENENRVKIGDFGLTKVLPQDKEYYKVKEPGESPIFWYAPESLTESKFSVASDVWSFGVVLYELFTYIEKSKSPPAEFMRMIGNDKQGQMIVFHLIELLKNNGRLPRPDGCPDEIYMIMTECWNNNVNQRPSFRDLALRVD
Chain of hck (P08631 262-515 limits assumed, species assumed): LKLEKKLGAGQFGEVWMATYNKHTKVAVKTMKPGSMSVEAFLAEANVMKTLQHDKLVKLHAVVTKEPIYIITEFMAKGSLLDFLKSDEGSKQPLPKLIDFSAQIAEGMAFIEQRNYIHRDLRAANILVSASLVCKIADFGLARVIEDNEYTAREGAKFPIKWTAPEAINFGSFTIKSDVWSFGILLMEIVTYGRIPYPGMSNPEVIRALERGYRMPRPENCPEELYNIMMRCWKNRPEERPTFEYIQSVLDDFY

| inhibition at 10 µM (human JAK2) [%] | inhibition at 10 µM (hck) [%] | inhibition at 10 µM (human JAK3) [%] | inhibition at 10 µM (Zap70) [%] | inhibition at 10 µM (fes) [%] | inhibition at 10 µM (fms) [%] | inhibition at 10 µM (abl) [%] | SMILES |
| --- | --- | --- | --- | --- | --- | --- | --- |
| < 50 | < 50 | < 50 | < 50 | < 50 | < 50 | – | O=C(NCCc1ccccc1)c1cncc(-c2ccc(O)cc2)c1 |
| < 50 | ≥ 50 | < 50 | < 50 | – | ≥ 50 | – | Cc1ccc(F)cc1NC(=O)c1cncc(-c2cc(C)c(O)c(C)c2)c1 |
| < 50 | – | < 50 | < 50 | < 50 | < 50 | < 50 | COc1cc(-c2cncc(C(=O)NCc3cccc(F)c3)c2)c(Cl)c(OC)c1OC |
| < 50 | – | < 50 | < 50 | < 50 | < 50 | < 50 | COc1cc(-c2cncc(C(=O)Nc3ccc(N4CCOCC4)cc3)c2)c(Cl)c(OC)c1OC |
| < 50 | < 50 | < 50 | < 50 | < 50 | < 50 | – | COc1cc(NC(=O)c2cncc(-c3cc(OC)c(OC)c(OC)c3Cl)c2)cc(OC)c1OC |
| < 50 | < 50 | < 50 | < 50 | < 50 | < 50 | – | C[C@@H](NC(=O)c1cncc(-c2ccc3c(c2)OCO3)c1)c1ccccc1 |
| < 50 | < 50 | < 50 | < 50 | < 50 | < 50 | – | C[C@H](NC(=O)c1cncc(-c2ccc3c(c2)OCO3)c1)c1ccccc1 |
| < 50 | < 50 | < 50 | < 50 | < 50 | < 50 | – | COc1ccc(CNC(=O)c2cncc(-c3ccc4c(c3)OCO4)c2)cc1 |
| < 50 | < 50 | < 50 | – | < 50 | < 50 | – | COc1ccc(NC(=O)c2cncc(-c3ccc4c(c3)OCO4)c2)c(OC)c1 |
| < 50 | < 50 | < 50 | < 50 | < 50 | < 50 | – | O=C(NCc1ccc(Cl)c(Cl)c1)c1cncc(-c2cccs2)c1 |
| < 50 | < 50 | < 50 | < 50 | < 50 | < 50 | – | CC(C)C(CO)NC(=O)c1cncc(-c2cccs2)c1 (stereo not shown) |
| < 50 | < 50 | < 50 | < 50 | < 50 | < 50 | – | O=C(NCc1ccncc1)c1cncc(-c2cccs2)c1 |
| < 50 | < 50 | < 50 | < 50 | < 50 | < 50 | – | Cc1ccc(C)c(NC(=O)c2cncc(-c3ccc(F)cc3)c2)c1 |
| < 50 | < 50 | < 50 | ≥ 50 | < 50 | < 50 | – | COc1cccc(-c2cncc(C(=O)NCc3cccnc3)c2)c1 |
| < 50 | < 50 | < 50 | < 50 | < 50 | < 50 | – | COc1cccc([C@H](C)NC(=O)c2cncc(-c3ccc(O)c(OC)c3)c2)c1 |
| < 50 | ≥ 50 | < 50 | < 50 | < 50 | < 50 | – | COc1cc(-c2cncc(C(=O)Nc3ccccc3C)c2)ccc1O |
